A word on the EC50: it is the concentration needed to bring the measured effect to its halfway point.

Like-named read-outs stand apart in the source and are kept apart here.

Consider 29 compounds from patent US20250304542A1, “Fused Heterobicyclic Antiviral Agents” (Enanta Pharmaceuticals, Inc., priority 2024, published 2025).

The test system of one test is HBV. In words: HBV Infection in HepG2-NTCP Cells (HBeAg AlphaLISA). In kind it is cell-based. The conditions noted are these: Hepatitis B virus, 192 h. On the procedure: HepG2-NTCP A3 cells were maintained in DMEM media supplemented with GlutaMAX™, 10% fetal bovine serum, 1% penicillin/streptomycin, and 5 μg/mL puromycin at 37° C. in a humidified atmosphere with 5% CO2 in a collagen-coated tissue culture flask.
HepG2-NTCP cells were seeded in 384 well plate containing 16,000 cells/well two days prior to the infection. On the day of infection, compounds were 3-fold serially diluted in DMSO and pre-incubated with HepG2-NTCP cells for two hours before purified HBV addition. HBV infection was carried out at 2000 GE/cell with 4% PEG, and the final concentration of DMSO is 0.5%. On day one post infection, HBV-containing media was aspirated, cells were washed once with PBS and then maintained in 2.5% DMSO containing media for the remainder of the assay.
Supernatants from infected HepG2-NTCP cells were collected at day 8 post infection, and the amount of viral antigen HBeAg was measured by HBeAg AlphaLISA detection kit (PerkinElmer) following the manufacturer's recommended protocol. Irrespective of readout, compound concentrations that reduce viral product accumulation in supernatants by 50% relative to DMSO controls (EC50) are reported. EC50 ranges are as follows: A<0.1 μM; B 0.1-1 μM; C>1 μM. A dash (-) indicates the compound was not tested.
(Alpha assays give light when donor and acceptor beads are brought close together.)

The target in the next test is T1, NTCP (Homo sapiens, UniProt Q14973).
T1 construct: expressed in transfected cells; host or cells: HepG2-NTCP (A3 clone, kept under puromycin)
T1 sequence (Q14973 1-349): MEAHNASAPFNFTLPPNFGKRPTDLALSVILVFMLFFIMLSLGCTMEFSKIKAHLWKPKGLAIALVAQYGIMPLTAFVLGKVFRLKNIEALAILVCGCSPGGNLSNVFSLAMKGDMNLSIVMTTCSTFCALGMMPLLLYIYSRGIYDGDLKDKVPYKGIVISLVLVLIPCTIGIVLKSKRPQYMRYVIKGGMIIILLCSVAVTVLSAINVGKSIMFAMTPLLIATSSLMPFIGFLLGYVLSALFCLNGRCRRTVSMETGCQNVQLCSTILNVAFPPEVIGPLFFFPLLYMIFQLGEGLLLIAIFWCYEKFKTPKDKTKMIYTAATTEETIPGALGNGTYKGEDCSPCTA
Nature of the test: HepG2-NTCP preS1 Binding Competition Assay. Conditions: HepG2-NTCP cells pre-treated 2 hours, FITC-labeled myristoylated preS1 peptide co-incubated 30 minutes, cell-surface fluorescence; read-out: Cellular EC50. On the procedure:
Myristoylated preS1 peptide (2-48 aa) conjugated to a C-terminal FITC tag was synthesized to evaluate preS1 binding to NTCP-expressing cells. HepG2-NTCP cells seeded in 384-wells were pre-treated with compounds for 2 hours prior to the addition of FITC-labeled preS1 peptide. After co-incubation for 30 minutes, unbound FITC-preS1 peptide was washed twice with PBS, and the fluorescence of preS1-FITC bound to cell surface was detected by Envision plate reader. EC50 ranges are as follows: A<0.1 μM; B 0.1-1 μM; C>1 μM. A dash (-) indicates the compound was not tested.

For `CN1[C@H](C2CCCCC2)CN(c2ccccc2)c2cc(Cl)c(C#CC(C)(C)C(=O)O)cc2S1(=O)=O` [Example 1, (R)-4-(7-chloro-3-cyclohexyl-2-methyl-1,1-dioxido-5-phenyl-2,3,4,5-tetrahydrobenzo[f][1,2,5]thiadiazepin-8-yl)-2,2-dimethylbut-3-ynoic acid], the concentration for a half-maximal effect (EC50) in the test on HBV (read-out: Cellular EC50 (μM)) was below 0.1 µM; on NTCP, below 100 nM. The like results for `CN1[C@H](C2CCCCC2)CN(c2ccccc2)c2cc(Cl)c(CCC(C)(C)C(=O)O)cc2S1(=O)=O` [Example 2, (R)-4-(7-chloro-3-cyclohexyl-2-methyl-1,1-dioxido-5-phenyl-2,3,4,5-tetrahydrobenzo[f][1,2,5]thiadiazepin-8-yl)-2,2-dimethylbutanoic acid] were, in that order, below 0.1 µM and below 100 nM.

`CN1[C@H](C2CCCCC2)CN(C2CCCCC2)c2ccc(CCC(C)(C)C(=O)O)cc2S1(=O)=O` [Example 3, (R)-4-(3,5-dicyclohexyl-2-methyl-1,1-dioxido-2,3,4,5-tetrahydrobenzo[f][1,2,5]thiadiazepin-8-yl)-2,2-dimethylbutanoic acid]: the EC50 with HBV (read-out: Cellular EC50 (μM)) is 0.1 to 1 µM; at NTCP, below 100 nM.

`CN1[C@H](C2CCCCC2)CN(C2CCCCC2)c2cc(Cl)c(CCC(C)(C)C(=O)O)cc2S1(=O)=O` [Example 4, (R)-4-(7-chloro-3,5-dicyclohexyl-2-methyl-1,1-dioxido-2,3,4,5-tetrahydrobenzo[f][1,2,5]thiadiazepin-8-yl)-2,2-dimethylbutanoic acid]: the concentration for a half-maximal effect (EC50) in the test with HBV (read-out: Cellular EC50 (μM)) is 0.1 to 1 µM; at NTCP, below 100 nM. As for `CN1[C@H](C2CCCCC2)CN(c2ccccc2)c2cc(Cl)c(C#CC3(C(=O)O)CC3)cc2S1(=O)=O` [Example 5], the results for the concentration for a half-maximal effect (EC50) in the test with HBV (read-out: Cellular EC50 (μM)) and at NTCP were below 0.1 µM and 100 to 1000 nM, respectively. As for `CN1[C@H](C2CCCCC2)CN(c2ccccc2)c2cc(Cl)c(CCC3(C(=O)O)CC3)cc2S1(=O)=O` [Example 6], the values for the EC50 in the test on HBV (read-out: Cellular EC50 (μM)) and on NTCP were below 0.1 µM and 100 to 1000 nM, respectively. Consider `CN1[C@H](C2CCCCC2)CN(c2ccccc2)c2cc(F)c(CCCC(=O)O)cc2S1(=O)=O` [Example 7], for which the figures for the concentration for a half-maximal effect (EC50) with HBV (read-out: Cellular EC50 (μM)) and at NTCP were 0.1 to 1 µM and 100 to 1000 nM, respectively.

Consider `CN1[C@H](C2CCCCC2)CN(C2CCCCC2)c2cc(Cl)c(/C=C/C(C)(C)C(=O)O)cc2S1(=O)=O` [Example 10, (R,E)-4-(7-chloro-3,5-dicyclohexyl-2-methyl-1,1-dioxido-2,3,4,5-tetrahydrobenzo[f][1,2,5]thiadiazepin-8-yl)-2,2-dimethylbut-3-enoic acid], for which the half-maximal effective concentration (EC50) at NTCP was in the range of 100 to 1000 nM. Take `CC(C)Oc1cccc(COc2cc3c(cc2C#CC2(C(=O)O)CC2)S(=O)(=O)N(C)[C@H](C2CCCCC2)CN3c2ccccc2)c1` [Example 11, (R)-1-((3-cyclohexyl-7-((3-isopropoxybenzyl)oxy)-2-methyl-1,1-dioxido-5-phenyl-2,3,4,5-tetrahydrobenzo[f][1,2,5]thiadiazepin-8-yl)ethynyl)cyclopropane-1-carboxylic acid]: the concentration giving a half-maximal response (EC50) was below 0.1 µM in the test on HBV (read-out: Cellular EC50 (μM)) and 100 to 1000 nM on NTCP. On to `CN1[C@H](C2CCCCC2)CN(c2ccccc2)c2cc(Cl)c(CC[C@H](NC(=O)OC(C)(C)C)C(=O)O)cc2S1(=O)=O` [Example 12, (S)-2-((tert-butoxycarbonyl)amino)-4-((R)-7-chloro-3-cyclohexyl-2-methyl-1,1-dioxido-5-phenyl-2,3,4,5-tetrahydrobenzo[f][1,2,5]thiadiazepin-8-yl)butanoic acid], for which the figures for the concentration giving a half-maximal response (EC50) in the test with HBV (read-out: Cellular EC50 (μM)) and on NTCP were below 0.1 µM and below 100 nM, respectively. In the case of `CN1[C@H](C2CCCCC2)CN(c2ccccc2)c2cc(Cl)c(CC[C@@H](NC(=O)OC(C)(C)C)C(=O)O)cc2S1(=O)=O` [Example 13], the values for the EC50 with HBV (read-out: Cellular EC50 (μM)) and on NTCP were below 0.1 µM and below 100 nM, respectively. For the compound `CCCCCOC(=O)N[C@H](CCc1cc2c(cc1Cl)N(c1ccccc1)C[C@@H](C1CCCCC1)N(C)S2(=O)=O)C(=O)O` [Example 17], the half-maximal effective concentration (EC50) on NTCP was in the range of 100 to 1000 nM.

With `CCOC(=O)N[C@@H](CCc1cc2c(cc1Cl)N(c1ccccc1)C[C@@H](C1CCCCC1)N(C)S2(=O)=O)C(=O)O` [Example 18], the EC50 on NTCP lay in the range of 100 to 1000 nM. On the same count and under the same terms, the same measure for `CCOC(=O)N[C@H](CCc1cc2c(cc1Cl)N(c1ccccc1)C[C@@H](C1CCCCC1)N(C)S2(=O)=O)C(=O)O` [Example 19]: 100 to 1000 nM; for `CCCCCCCCCOC(=O)N[C@@H](CCc1cc2c(cc1Cl)N(c1ccccc1)C[C@@H](C1CCCCC1)N(C)S2(=O)=O)C(=O)O` [Example 20]: 100 to 1000 nM; for `CCCCCCCCCOC(=O)N[C@H](CCc1cc2c(cc1Cl)N(c1ccccc1)C[C@@H](C1CCCCC1)N(C)S2(=O)=O)C(=O)O` [Example 21]: 100 to 1000 nM. Consider `CN1[C@H](C2CCCCC2)CN(c2ccccc2)c2cc(Cl)c(CC[C@@H](NC(=O)OCc3ccccc3)C(=O)O)cc2S1(=O)=O` [Example 23], for which the EC50 on NTCP lay in the range of 100 to 1000 nM.

With `CN1[C@H](C2CCCCC2)CN(c2ccccc2)c2cc(Cl)c(CC[C@@H](NC(=O)N3CCCCC3)C(=O)O)cc2S1(=O)=O` [Example 24, (R)-4-((R)-7-chloro-3-cyclohexyl-2-methyl-1,1-dioxido-5-phenyl-2,3,4,5-tetrahydrobenzo[f][1,2,5]thiadiazepin-8-yl)-2-(piperidine-1-carboxamido)butanoic acid], the EC50 at NTCP is 100 to 1000 nM. On the same count and under the same terms, to `CCN(C)C(=O)N[C@H](CCc1cc2c(cc1Cl)N(c1ccccc1)C[C@@H](C1CCCCC1)N(C)S2(=O)=O)C(=O)O` [Example 25, (R)-4-((R)-7-chloro-3-cyclohexyl-2-methyl-1,1-dioxido-5-phenyl-2,3,4,5-tetrahydrobenzo[f][1,2,5]thiadiazepin-8-yl)-2-(3-ethyl-3-methylureido)butanoic acid] belongs 100 to 1000 nM. As to `CCN(C)C(=O)N[C@@H](CCc1cc2c(cc1Cl)N(c1ccccc1)C[C@@H](C1CCCCC1)N(C)S2(=O)=O)C(=O)O` [Example 26], the EC50 on NTCP fell in the range of 100 to 1000 nM. The same measure, in the same setting: to `CN1[C@H](C2CCCCC2)CN(c2ccccc2)c2cc(Cl)c(CC[C@H](NC(=O)N3CCCCC3)C(=O)O)cc2S1(=O)=O` [Example 27] belongs 100 to 1000 nM; to `CC(C)CS(=O)(=O)N[C@@H](CCc1cc2c(cc1Cl)N(c1ccccc1)C[C@@H](C1CCCCC1)N(C)S2(=O)=O)C(=O)O` [Example 28, (S)-4-((R)-7-chloro-3-cyclohexyl-2-methyl-1,1-dioxido-5-phenyl-2,3,4,5-tetrahydrobenzo[f][1,2,5]thiadiazepin-8-yl)-2-((2-methylpropyl)sulfonamido)butanoic acid], 100 to 1000 nM; to `CN1[C@H](C2CCCCC2)CN(c2ccccc2)c2cc(Cl)c(CC[C@H](NC(=O)C(=O)N3CCCC3)C(=O)O)cc2S1(=O)=O` [Example 35], 100 to 1000 nM.

With `CCCCCC(=O)N[C@@H](CCc1cc2c(cc1Cl)N(c1ccccc1)C[C@@H](C1CCCCC1)N(C)S2(=O)=O)C(=O)O` [Example 36, (S)-4-((R)-7-chloro-3-cyclohexyl-2-methyl-1,1-dioxido-5-phenyl-2,3,4,5-tetrahydrobenzo[f][1,2,5]thiadiazepin-8-yl)-2-hexanamidobutanoic acid], on NTCP, the EC50 lay within 100 to 1000 nM.

With `CN1[C@H](C2CCCCC2)CN(c2ccccc2)c2cc(Cl)c(OCC(C)(C)C(=O)O)cc2S1(=O)=O` [Example 38, (R)-3-((7-chloro-3-cyclohexyl-2-methyl-1,1-dioxido-5-phenyl-2,3,4,5-tetrahydrobenzo[f][1,2,5]thiadiazepin-8-yl)oxy)-2,2-dimethylpropanoic acid], in the test on HBV (HBV-infected HepG2-NTCP cells, HBeAg in supernatants at day 8 post infection, 50% reduction relative to DMSO controls, read-out: Cellular EC50), the EC50 lay within 0.1 to 1 µM. In the case of `CNc1cc2c(cc1C(=O)NC1(C(=O)O)CC1)S(=O)(=O)N(C)[C@H](C1CCCCC1)CN2c1ccccc1` [Example 42], the 50% effective concentration (EC50) on NTCP was above 1000 nM. Regarding `CNc1cc2c(cc1C(=O)NC(C)(C)C(=O)O)S(=O)(=O)N(C)[C@H](C1CCCCC1)CN2c1ccccc1` [Example 43], the half-maximal effective concentration (EC50) at NTCP was 100 to 1000 nM. Consider `CNc1cc2c(cc1C(=O)N[C@H](C(=O)O)C1CCOCC1)S(=O)(=O)N(C)[C@H](C1CCCCC1)CN2c1ccccc1` [Example 44], for which the EC50 at NTCP is above 1000 nM. Turning to `CNc1cc2c(cc1C(=O)N[C@@H](C(=O)O)c1cccc(Cl)c1)S(=O)(=O)N(C)[C@H](C1CCCCC1)CN2c1ccccc1` [Example 46], the concentration for a half-maximal effect (EC50) on NTCP was 100 to 1000 nM.
